Molecular target: Induced myeloid leukemia cell differentiation protein Mcl-1 (Homo sapiens, UniProt Q07820)
Test: Mcl-1/Bim interaction regulators – biochemical, bead-based flow cytometry, multiplexed, human, dose response (AID 1329)
[1] = inactive by the depositor's call

Sequence of Induced myeloid leukemia cell differentiation protein Mcl-1 (Q07820 whole entry): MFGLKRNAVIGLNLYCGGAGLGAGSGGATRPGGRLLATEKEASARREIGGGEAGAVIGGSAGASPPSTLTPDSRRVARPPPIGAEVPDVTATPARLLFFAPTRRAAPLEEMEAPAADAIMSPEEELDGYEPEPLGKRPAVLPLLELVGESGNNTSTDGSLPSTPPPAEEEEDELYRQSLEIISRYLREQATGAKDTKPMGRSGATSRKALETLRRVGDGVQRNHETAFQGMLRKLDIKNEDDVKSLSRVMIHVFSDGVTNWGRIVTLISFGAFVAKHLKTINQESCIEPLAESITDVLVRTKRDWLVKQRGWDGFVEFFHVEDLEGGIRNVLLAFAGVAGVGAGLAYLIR

Compound	EC50 [1]	EC50
CN1CCN(C2=C(Cl)C(=O)C(c3cnc(N4CCCCC4)s3)=C(Cl)C2=O)CC1	0.7 µM	
O=S1(=O)N=C(N(CCO)N=C/C=C/c2ccccc2)c2ccccc21	20.9 µM	
O=C(c1ccccc1)c1ccc2nc(-c3ccco3)c(-c3ccco3)nc2c1	45.4 µM	
COc1ccc(-n2c(=O)c3ccccc3c3ccccc3c2=O)c(OC)c1	26.9 µM	
O=C(/C=C\c1ccc(-c2ccccc2)o1)c1ccccc1 [(Z)-1-phenyl-3-(5-phenyl-2-furanyl)-2-propen-1-one]	20.7 µM	
Cc1cc(C)nc(SCc2cc(=O)c(OC(=O)c3ccc(Cl)c([N+](=O)[O-])c3)co2)n1 [4-chloro-3-nitrobenzoic acid [6-[[(4,6-dimethyl-2-pyrimidinyl)thio]methyl]-4-oxo-3-pyranyl] ester]	5.92 µM	
COc1cc2nc(=S)[nH]c(NCC3CCCO3)c2cc1OC (stereo unspecified) [6,7-dimethoxy-4-(2-oxolanylmethylamino)-1H-quinazoline-2-thione]	1.9 µM	
c1ccc(-c2nc(N3CCOCC3)[s+]n2-c2ccccc2)cc1		9.74 µM
CCOCCCNc1nc(S)nc2cc(OC)c(OC)cc12	2.54 µM	
CN1CCc2cccc3c2[C@@H]1Cc1ccc(O)c(O)c1-3		38.6 µM
CCC(/C=C1\Sc2ccc(OC)cc2N1CCO)=C\c1sc2ccc(OC)cc2[n+]1CCO		19.3 µM
O=C(CSc1ccc2nnc(-c3ccccn3)n2n1)Nc1nccs1 [2-[[3-(2-pyridinyl)-[1,2,4]triazolo[4,3-b]pyridazin-6-yl]thio]-N-(2-thiazolyl)acetamide]	11.8 µM	
O=C1/C(=C\c2ccc(-c3ccccc3Cl)o2)SC(=S)N1CC1CCCO1 (stereo unspecified) [(5E)-5-[[5-(2-chlorophenyl)furan-2-yl]methylidene]-3-(oxolan-2-ylmethyl)-2-sulfanylidene-1,3-thiazolidin-4-one]	2.14 µM	
Cc1ccnc(Nc2nc(-c3c(C)nc4sccn34)cs2)c1 [[4-(6-Methyl-imidazo[2,1-b]thiazol-5-yl)-thiazol-2-yl]-(4-methyl-pyridin-2-yl)-amine]	16.7 µM	
COCCNC(=S)Nc1cc(OC)c(OC)cc1C#N [1-(2-cyano-4,5-dimethoxy-phenyl)-3-(2-methoxyethyl)thiourea]	7.11 µM	
Cc1ccc(-c2ccc(/C=C/C(=O)c3ccccc3)o2)cc1	13.2 µM	
CN(N=C/C=C/c1ccccc1)C1=NS(=O)(=O)c2ccccc21 [(1E,2E)-3-phenylacrylaldehyde (1,1-dioxido-1,2-benzisothiazol-3-yl)(methyl)hydrazone]	5.53 µM	
O=C(NCc1ccccc1)c1ccc2nc(-c3ccco3)c(-c3ccco3)nc2c1 [2,3-bis(furan-2-yl)-N-(phenylmethyl)quinoxaline-6-carboxamide]	7.82 µM	
CCOC(=O)c1ccc(Nc2nc(C(=O)OCC)nc3ccccc23)cc1	4.52 µM	
CCOC(=O)c1nc(Nc2ccc(C(=O)OC)cc2)c2ccccc2n1 [ethyl 4-(4-methoxycarbonylanilino)quinazoline-2-carboxylate]	14.7 µM	

Compound	EC50 [1]	EC50
COc1cccc2c(SCC(=O)NN=Cc3ccc(O)cc3O)cc(C)nc12 [N'-[(E)-(2-hydroxy-4-oxo-1-cyclohexa-2,5-dienylidene)methyl]-2-[(8-methoxy-2-methyl-4-quinolinyl)thio]acetohydrazide]		29 µM
O=C(Nc1ccccc1)c1ccc2nc(-c3ccco3)c(-c3ccco3)nc2c1 [2,3-di-2-furyl-N-phenyl-6-quinoxalinecarboxamide]	39.6 µM	
COCCCn1c(N)c(C(=O)Nc2sc3c(c2C(=O)OC)CCCC3)c2nc3ccccc3nc21 [MLS000595323]	3.12 µM	
Cc1ccc(C(=O)/C=C/c2ccc(-c3ccc(C)cc3)o2)cc1 [1-p-Tolyl-3-(5-p-tolyl-furan-2-yl)-propenone]	2.61 µM	
COc1cc(C=NNC(=O)CN(Cc2ccco2)S(=O)(=O)c2ccccc2)ccc1O [N-(2-furanylmethyl)-N-[2-[[(E)-(3-methoxy-4-oxo-1-cyclohexa-2,5-dienylidene)methyl]hydrazo]-2-oxoethyl]benzenesulfonamide]		11.4 µM
COc1cc(CN=Nc2nn3cnnc3c3ccccc23)ccc1O [(4E)-2-methoxy-4-[[2-([1,2,4]triazolo[3,4-a]phthalazin-6-yl)hydrazinyl]methylidene]cyclohexa-2,5-dien-1-one]		5.05 µM
O=C(/C=C/c1ccccc1Cl)c1ccccc(=O)c1O [3-[(E)-3-(2-chlorophenyl)prop-2-enoyl]-2-oxidanyl-cyclohepta-2,4,6-trien-1-one]	19.4 µM	
COCCNc1[nH]c(=S)nc2cc(OC)c(OC)cc12	4.54 µM	
CCN1C(=O)/C(=C/C=C2\C=CN(CC)c3ccccc32)SC1=S	15.8 µM	
Cc1cccc(OCC(=O)NCC(=O)NN=Cc2cc(Br)ccc2OCc2ccccc2)c1 [N-[(5-bromanyl-2-phenylmethoxy-phenyl)methylideneamino]-2-[2-(3-methylphenoxy)ethanoylamino]ethanamide]	7.78 µM	
CCOCCCn1c(N)c(C(=O)Nc2sc3c(c2C(=O)OC)CCCC3)c2nc3ccccc3nc21	1.85 µM	
O=C(Nc1ccc2nc(-c3ccco3)c(-c3ccco3)nc2c1)N1CCN(c2ccccn2)CC1	10.9 µM	
Cc1ccc(-c2nc(N3CCOCC3)s[n+]2-c2ccccc2)cc1 [SMR000225370]		2.04 µM
c1ccc(Nc2cccc(Nc3ccccc3)n2)cc1 [N,N'-diphenyl-2,6-pyridinediamine]	12.2 µM	
CN(C)c1ncc(C2=C(Cl)C(=O)C(N3CCCC3)=C(Cl)C2=O)s1	3.71 µM	
COc1ccc(C2=Nn3c(nnc3-c3ccco3)SC2)cc1OC [6-(3,4-Dimethoxy-phenyl)-3-furan-2-yl-7H-[1,2,4]triazolo[3,4-b][1,3,4]thiadiazine]	2.94 µM	
CN(N=Cc1ccncc1)C1=NS(=O)(=O)c2ccccc21 [isonicotinaldehyde (1,1-dioxido-1,2-benzisothiazol-3-yl)(methyl)hydrazone]	2.74 µM	
Cc1nc2ncccn2c1-c1csc(Nc2ccc(O)cc2)n1		0.39 µM
Cc1nc2ncccn2c1-c1csc(Nc2ccccc2)n1 [4-(2-methyl-3-imidazo[1,2-a]pyrimidinyl)-N-phenyl-2-thiazolamine]	8.97 µM	
COc1cc2nc(=S)n(CCCN3CCOCC3)c(N)c2cc1OC	6.14 µM	

Continued, values first:

EC50 [1]	EC50	Compound
39.5 µM		Cc1ccnc(SCc2cc(=O)c(OC(=O)c3ccc(Cl)c([N+](=O)[O-])c3)co2)n1 [MLS000696790]
9.39 µM		Cc1cc(-c2nnc3n2N=C(c2ccc(-c4ccccc4)cc2)CS3)[nH]n1 [MLS000082991]
16.3 µM		C#CCn1cc(C=C2C(=O)c3ccccc3C2=O)c2ccccc21 [SMR000196125]
	5.76 µM	Cc1nnc2ccc(-c3cccc(NC(=O)c4ccco4)c3)nn12 [SMR000324305]
	6 µM	Nc1c(C(=O)NCC2CCCO2)sc2nc3c(c(-c4ccco4)c12)CC/C3=C\c1ccco1 (stereo unspecified) [SMR000259502]
16.9 µM		Clc1nc(NCc2cccnc2)nc(N2CCOCC2)n1 [MLS000121154]
10.5 µM		Fc1ccc(C2=Nc3cccc4cccc(c34)N2)cc1 [MLS000687139]
69.7 µM		O=C1c2ccccc2-c2onc3ccc(N4CCCC4)c1c23 [SMR000279741]
	41.2 µM	CCN1/C(=C/C(C)=C/c2sc3ccccc3[n+]2CC)Sc2ccccc21 [SMR000354813]
1.75 µM		Cc1cc2nn(-c3cccc4ccccc34)nc2cc1N [SMR000076237]
0.36 µM		COc1cc2nc(=S)[nH]c(NCCc3ccc(S(N)(=O)=O)cc3)c2cc1OC [MLS000674601]
1.74 µM		COCCCNc1nc(S)nc2cc(OC)c(OC)cc12 [SMR000026607]
16 µM		COc1ccc(C)cc1-n1c(=O)c2ccccc2c2ccccc2c1=O [MLS000682999]
33.2 µM		COc1ccc(/C=C/C(=O)c2cc(Br)ccc(=O)c2O)cc1 [MLS000702099]
20.6 µM		CN(N=Cc1cccnc1)C1=NS(=O)(=O)c2ccccc21 [SMR000207578]
9.29 µM		CCOC(=O)c1c(O)nc2ccc(Cl)c3c2c1-c1ccccc1C3=O [MLS000704595]
	5.86 µM	Nc1c(C(=O)NC2CC2)sc2nc3c(c(-c4ccco4)c12)CC/C3=C/c1ccco1 [SMR000259554]
16.7 µM		COc1ccc(OC)c(-n2c(=O)c3ccccc3c3ccccc3c2=O)c1 [SMR000236434]
5.71 µM		Cc1ccc(C=NNC(=O)CSc2nnc(-c3ccc(Cl)cc3)n2-c2ccccc2)o1 [SMR000218122]
1.04 µM		CCCCNc1[nH]c(=S)nc2cc(OC)c(OC)cc12 [MLS000520261]
21 µM		Cc1cc2n(c1)CCn1c(C)ccc1-2 [MLS000104384]
